We go through 1 compound from paper PMC5075806, “SIKs control osteocyte responses to parathyroid hormone” (Nature Communications, 2016).

By Kd is commonly meant the concentration at which binding is half-saturated. Read a high Kd as a looser complex.

The target in one assay is SIK3 (Homo sapiens, UniProt Q9Y2K2). In words: DiscoverX scanEDGE competition binding panel at […] (SIK3 listed as QSK); value in Supplementary Table […].
The target of another assay is SIK2 (Homo sapiens, UniProt Q9H0K1). Briefly: DiscoverX competition binding assay with DNA/phage-tagged kinase, qPCR readout, Kd curves.
Sequence of SIK2 (Q9H0K1 whole entry): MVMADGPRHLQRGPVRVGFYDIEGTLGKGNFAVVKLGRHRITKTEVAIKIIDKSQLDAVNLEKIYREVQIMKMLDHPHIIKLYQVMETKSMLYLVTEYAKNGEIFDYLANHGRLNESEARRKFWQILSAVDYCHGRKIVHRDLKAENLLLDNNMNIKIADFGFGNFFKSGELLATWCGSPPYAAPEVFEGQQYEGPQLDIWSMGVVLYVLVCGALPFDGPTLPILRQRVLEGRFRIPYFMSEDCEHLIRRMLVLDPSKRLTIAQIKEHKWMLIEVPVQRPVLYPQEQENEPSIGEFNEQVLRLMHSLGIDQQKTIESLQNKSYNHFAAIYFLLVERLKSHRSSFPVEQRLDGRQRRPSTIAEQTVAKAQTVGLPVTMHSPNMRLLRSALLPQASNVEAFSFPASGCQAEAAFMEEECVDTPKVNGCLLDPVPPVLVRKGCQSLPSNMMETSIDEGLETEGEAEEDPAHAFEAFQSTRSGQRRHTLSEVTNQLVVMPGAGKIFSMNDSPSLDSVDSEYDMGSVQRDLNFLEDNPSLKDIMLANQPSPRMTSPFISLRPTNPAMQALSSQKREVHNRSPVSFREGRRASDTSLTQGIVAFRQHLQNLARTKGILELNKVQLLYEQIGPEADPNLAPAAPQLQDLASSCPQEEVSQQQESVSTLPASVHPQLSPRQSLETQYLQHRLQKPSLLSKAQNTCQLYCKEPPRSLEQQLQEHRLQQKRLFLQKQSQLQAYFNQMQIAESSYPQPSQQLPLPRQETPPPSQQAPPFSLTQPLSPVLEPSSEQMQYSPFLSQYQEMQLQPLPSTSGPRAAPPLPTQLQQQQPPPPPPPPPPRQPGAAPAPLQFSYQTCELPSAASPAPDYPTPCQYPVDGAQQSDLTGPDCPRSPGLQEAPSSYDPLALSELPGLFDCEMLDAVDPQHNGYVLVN

Sequence of SIK3 (Q9Y2K2 whole entry): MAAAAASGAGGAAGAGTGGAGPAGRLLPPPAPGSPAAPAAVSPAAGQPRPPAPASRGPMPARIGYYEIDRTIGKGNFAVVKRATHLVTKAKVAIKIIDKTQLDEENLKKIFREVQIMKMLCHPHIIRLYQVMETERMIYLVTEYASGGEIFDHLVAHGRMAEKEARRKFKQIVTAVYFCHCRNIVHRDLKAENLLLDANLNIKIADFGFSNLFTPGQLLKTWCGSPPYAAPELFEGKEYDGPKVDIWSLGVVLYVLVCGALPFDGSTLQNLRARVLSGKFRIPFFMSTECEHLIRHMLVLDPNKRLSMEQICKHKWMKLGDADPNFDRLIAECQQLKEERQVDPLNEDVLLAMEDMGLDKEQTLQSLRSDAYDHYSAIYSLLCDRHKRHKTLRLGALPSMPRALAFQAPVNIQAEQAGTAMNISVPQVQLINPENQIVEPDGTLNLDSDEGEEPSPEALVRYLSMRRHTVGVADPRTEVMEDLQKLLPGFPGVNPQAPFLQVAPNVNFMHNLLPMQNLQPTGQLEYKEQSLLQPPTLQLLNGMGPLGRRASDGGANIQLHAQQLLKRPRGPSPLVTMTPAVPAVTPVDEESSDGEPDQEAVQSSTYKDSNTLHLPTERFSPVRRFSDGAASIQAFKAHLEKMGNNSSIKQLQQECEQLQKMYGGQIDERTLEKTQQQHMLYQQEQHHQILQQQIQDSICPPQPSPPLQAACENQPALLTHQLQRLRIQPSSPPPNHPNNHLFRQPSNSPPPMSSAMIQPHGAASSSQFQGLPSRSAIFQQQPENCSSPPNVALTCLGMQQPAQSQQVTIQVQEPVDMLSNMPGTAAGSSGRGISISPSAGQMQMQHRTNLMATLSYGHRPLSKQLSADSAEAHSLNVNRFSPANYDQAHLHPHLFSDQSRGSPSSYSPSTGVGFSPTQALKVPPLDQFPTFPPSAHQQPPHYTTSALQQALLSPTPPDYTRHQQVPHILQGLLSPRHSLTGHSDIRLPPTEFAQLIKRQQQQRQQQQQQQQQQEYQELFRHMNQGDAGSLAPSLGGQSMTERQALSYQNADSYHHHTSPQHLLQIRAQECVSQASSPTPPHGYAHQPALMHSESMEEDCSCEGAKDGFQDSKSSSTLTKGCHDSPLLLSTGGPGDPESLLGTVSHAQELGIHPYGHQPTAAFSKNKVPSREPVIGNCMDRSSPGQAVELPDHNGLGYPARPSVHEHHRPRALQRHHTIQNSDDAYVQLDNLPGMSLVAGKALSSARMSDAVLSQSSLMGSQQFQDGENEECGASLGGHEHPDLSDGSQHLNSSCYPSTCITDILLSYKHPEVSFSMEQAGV

In the case of `COc1ccc(N2C(=O)N(c3c(C)cccc3C)Cc3cnc(Nc4ccc(C5CCN(C)CC5)cc4OC)nc32)c(OC)c1` [YKL-05-093], the “DiscoverX scanEDGE competition binding panel at 71 nM (SIK3 listed as QSK); valu” value at SIK3 is “both inhibitors potently target SIK3 in addition to SIK2”. The compound further registered a Kd on SIK2 of 7.1 nM.
